From article PMC10629533, “Structures and membrane interactions of native serotonin transporter in complexes with psychostimulants” (Proceedings of the National Academy of Sciences of the …, 2023)

Target: T1, porcine serotonin transporter (pSERT) (Sus scrofa, UniProt F1RN70)
T1 construct: gene SLC6A4; native full-length pSERT from porcine brain; model residues 116-654; with 15B8 Fab
Test: cryo-EM structure ([…] Å); [3H]paroxetine competition SPA with purified native pSERT
Assay type: binding

T1 sequence (F1RN70 38-667): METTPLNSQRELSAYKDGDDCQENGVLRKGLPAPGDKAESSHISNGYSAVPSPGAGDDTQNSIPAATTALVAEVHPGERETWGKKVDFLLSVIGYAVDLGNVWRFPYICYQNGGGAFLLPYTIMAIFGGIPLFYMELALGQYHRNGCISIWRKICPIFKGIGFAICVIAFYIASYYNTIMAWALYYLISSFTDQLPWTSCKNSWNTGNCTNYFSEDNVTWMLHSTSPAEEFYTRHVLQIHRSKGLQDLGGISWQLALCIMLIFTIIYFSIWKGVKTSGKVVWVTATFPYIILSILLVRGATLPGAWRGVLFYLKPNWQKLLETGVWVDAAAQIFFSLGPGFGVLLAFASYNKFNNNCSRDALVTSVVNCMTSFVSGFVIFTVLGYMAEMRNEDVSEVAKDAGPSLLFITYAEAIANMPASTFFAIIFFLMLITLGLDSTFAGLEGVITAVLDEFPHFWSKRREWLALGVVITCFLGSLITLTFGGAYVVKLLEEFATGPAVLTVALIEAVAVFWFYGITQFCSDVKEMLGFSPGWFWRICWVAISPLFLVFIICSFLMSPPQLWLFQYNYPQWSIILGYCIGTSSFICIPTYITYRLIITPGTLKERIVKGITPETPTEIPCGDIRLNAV

In the case of CN[C@@H](C)Cc1ccccc1 [(+)-methamphetamine], the Ki is reported as 199 ± 103 µM.
